The results in this text go back to article PMC11326411, “PET imaging of [52 Mn]Mn-DOTATATE and [52 Mn]Mn-DOTA-JR11” (Research Square, 2024).

For data set [1], the system named is SSTR2 + AR42J cells. The experiment in a line: Cell uptake in AR42J cells. In kind it is cell-based, rat. On the procedure:
(§1) 1×10^5 AR42J, A549, and MCF-7 cells were seeded onto 24-well plates (n = 6) and incubated at 37°C 48 h before study. […] The cells were incubated at 37°C under 5% CO2 for 2 h. Following incubation, the media was removed, and the cells were washed 3 times with ice-cold PBS. 500 μL of 0.2 M NaOH was added to detach the cells before collection into microcentrifugetubes followed by a 500 μL wash of PBS. Associated radioactivity was counted on a HIDEX (Turku, Finland) AGM gamma counter.
(§2) To normalize the counts to the total protein amount, a BCA protein assay (ThermoFisher Scientific) was performed, and the final data reported in % cell uptake/mg of protein.

The test system of data set [2] is AR42J cells. The experiment in a line: Cell internalization assay in AR42J cells. In kind it is cell-based, rat. The settings on record: for internalization fraction (of total activity): 2 h incubation. How it is done: At each time point, the media was removed, and cells were washed 3 times with ice-cold PBS. To determine the surface bound fraction, 0.5 mL of 0.1 M citric acid (pH 5) was added to each well and incubated for 5 min. The fraction was collected into a microcentrifuge tube followed by addition of 0.5 mL gentle wash of PBS. To determine the internalized activity, 0.5 mL of 0.2 M NaOH was added to each well and incubated at 37°C for 5 min. This fraction was collected in a separate tube followed by addition of 0.5 mL of PBS wash. The final results were expressed as a percentage of the total activity that was present in each of the two fractions.

Data set [3] has as its system A549 cells. The experiment in a line: Cell uptake in A549 cells. In kind it is cell-based, human. Particulars: A549, 0.5 nM, 2 h, 37°C, per mg protein; Fig. 3A study. On the procedure:
as §1, §2

Data set [4] deals with MCF-7 cells. The data set can be described thus: Cell uptake in MCF-7 cells. In kind it is cell-based, human. The settings on record: MCF-7, 0.5 nM, 2 h, 37°C, per mg protein; Fig. 3A study. How it is done: as §1, §2
Data set [5] is described as follows: in vivo. Particulars: mouse, total radioactivity, Biodistribution.
Experimental: Subcutaneous tumor xenograft models for AR42J were established by implanting 1×10^6 cells in complete cell media subcutaneously into the right shoulder 3–4 weeks (tumor average diameter of between 5–7 mm) before study.
Mice (n = 4 per group) were anesthetized with 2.5% isoflurane in oxygen and were injected via the retroorbital sinus. After injection, at 4, 24, and 48 h, mice were imaged on a Sofie GNEXT PET/CT small animal scanner (Sofie Biosciences, Dulles, VA, USA). At each time point, 30 min of PET data were acquired followed by a 3-min CT at 80 kVp for anatomical reference. At each time point post imaging, mice were euthanized, and organs were collected, weighed, and counted for associated radioactivity on gamma counter. Radioactivity uptake was calculated as the percent injected dose per gram of tissue (% ID/g).
Data set [6] is described as follows: Stability of the radioligands in mouse serum. Particulars: 37°C, 5 days post incubation, radio-TLC.
Experimental: At the specified time points, 40 μL of serum/radioligand mixture was collected and combined with an equal amount of methanol to separate serum proteins, as described in a previously published protocol on metabolite extraction and protein removal [19]. The supernatant was analyzed using both radio TLC and radio HPLC, as described above to determine the percentage intact complex.
[7] abbreviates: 2 h incubation at 37°C, comparative study Fig. 4A.

Broadly, the tissue uptake is the percentage of the injected dose found per gram of tissue.

Where a SMILES comes first, the peptide text is derived from it. Bridges are numbered along the chain shown (N, C = ends). [ ]: non-standard residue; d: D form. The star is where a group is joined. DOTA = O=C(O)CN1CCN(CC(=O)O)CCN(CC(=O)*)CCN(CC(=O)O)CC1; dPhe(4-NHCONH2) = NC(=O)Nc1ccc(C[C@@H](N)C(=O)O)cc1; Dihydroorotyl(S) = O=C1C[C@@H](C(=O)*)NC(=O)N1; Phe(4-Cl) = N[C@@H](Cc1ccc(Cl)cc1)C(=O)O; Phe(4-NH2) = Nc1ccc(C[C@H](N)C(=O)O)cc1

In the case of `C[C@@H](O)[C@@H]1NC(=O)[C@H](CCCCN)NC(=O)[C@@H](Cc2ccc(NC(N)=O)cc2)NC(=O)[C@H](Cc2ccc(NC(=O)[C@@H]3CC(=O)NC(=O)N3)cc2)NC(=O)[C@H](NC(=O)[C@H](Cc2ccc(Cl)cc2)NC(=O)CN2CCN(CC(=O)O)CCN(CC(=O)O)CCN(CC(=O)O)CC2)CSSC[C@@H](C(=O)N[C@H](Cc2ccc(O)cc2)C(N)=O)NC1=O` [[^52Mn]Mn-DOTA-JR11] ({DOTA}-[Phe(4-Cl)][dC][Phe(4-NH2)](Dihydroorotyl(S))[dPhe(4-NHCONH2)]KTC[dY]-NH2; disulfide 2-7 (inferred); C-terminus assumed), in data set [1] (setting [7]), the cell uptake amounted to 7.13 ± 0.38 %/ mg. Moreover, in data set [2], the total activity internalized is 20.85 ± 0.59% and the “internalization fraction (of total activity)” value is recorded as 20.85 ± 0.59%.

On to `C[C@@H](O)[C@H](NC(=O)[C@@H]1CSSC[C@H](NC(=O)[C@@H](Cc2ccccc2)NC(=O)CN2CCN(CC(=O)O)CCN(CC(=O)O)CCN(CC(=O)O)CC2)C(=O)N[C@@H](Cc2ccc(O)cc2)C(=O)N[C@H](Cc2c[nH]c3ccccc23)C(=O)N[C@@H](CCCCN)C(=O)N[C@@H]([C@@H](C)O)C(=O)N1)C(=O)O` [[^52Mn]Mn-DOTATATE], for which the cell uptake in data set [1] (0.5 nM, 2 h, 37°C, per mg protein, Fig. 3A study) worked out at 18.25 ± 1.31 % /mg; in data set [1] (setting [7]) it was 11.95 ± 0.71 %/ mg; in data set [3], 4.07 ± 0.88 % /mg; in data set [4], 2.30 ± 0.20 % /mg. This molecule also registered a total activity internalized in data set [2] of 53.13 ± 1.83%. The “internalization fraction (of total activity)” value in data set [2] is on record as 53.13 ± 1.83%. For the same molecule, the tissue uptake at 4 h in data set [5] (Blood (μL)) was 0.91 ± 0.05 %ID/g; in data set [5] (Fat), 0.52 ± 0.19 %ID/g; in data set [5] (Small Intestines), 1.32 ± 0.46 %ID/g. For the same molecule, in data set [6], the intact complex is given as greater than 95%.
